Laboratory results from the Bradley open melting point set (2014).
Where “and” joins values, the source holds several entries; their conditions need not be identical. Equal values may be shown once.

melting point	Structure (SMILES)
44 °C	COc1ccc(Cl)c([N+](=O)[O-])c1 [4-chloro-3-nitroanisole]
-70 °C	C1CCC2=NCCCN2CC1 [1,8-diazabicyclo[5.4.0]undec-7-ene]
147 °C	O=C(O)CCC(=O)c1ccc(Br)cc1 [3-(4-bromobenzoyl)propionic acid]
93.9 °C	CC(C(=O)O)c1cccc(C(=O)c2ccccc2)c1 (stereo not drawn) [(+/+)-ketoprofen]
96 °C	CCC(=C(c1ccccc1)c1ccc(OCCN(C)C)cc1)c1ccccc1 [tamoxifen]
45 °C	Cc1cc(CO)nn1-c1ccccn1 [(5-methyl-1-pyridin-2-yl-1H-pyrazol-3-yl)methanol]
150 °C	O=C(O)[C@@H]1[C@H](C(=O)O)[C@H]2C=C[C@@H]1C2 [(1R,2R,3S,4S)-Bicyclo[2.2.1]hept-5-ene-2,3-dicarboxylic acid]
100 °C	CC(C)NCC(O)c1cc(O)cc(O)c1 (configuration not stated) [metaproterenol]
60 °C	OCCCCCCCCO [1,8-octanediol]
143 °C	N#Cc1c(N)sc2c1CCCC2 [2-Amino-4,5,6,7-tetrahydrobenzo(b)thiophene-3-carbonitrile]
73 °C	Cc1cc(Br)c(C)cc1Br [2,5-dibromo-p-xylene]
-63 °C	ClC(Cl)Cl [chloroform]
253 °C	Cc1cc2[nH]c(C)cc(=O)n2n1 [2,5-dimethylpyrazolo[1,5-a]pyrimidin-7(4h)-one]
113 °C	OC/C(Br)=C(\Br)CO [(2E)-2,3-Dibromobut-2-ene-1,4-diol]
222 °C	O=C1CNC(=O)N1 [hydantoin]
9 °C	Cc1cc(C)cc(C=O)c1 [3,5-dimethylbenzaldehyde]
171 °C	NNC(=O)c1ccncc1 [Isoniazid]
114 °C	COc1ccc(OC)c(S(=O)(=O)Cl)c1 [2,5-dimethoxybenzenesulfonyl chloride]
46 °C	COc1cccc(C#N)c1OC [2,3-dimethoxybenzonitrile]
94 °C	OC[C@@H](O)[C@H](O)[C@@H](O)CO [xylitol]
-88 °C	C[C@H]1CCCC[C@@H]1C (relative stereo) [trans-1,2-dimethylcyclohexane]
145 °C	OC[C@H]1O[C@@H](O)[C@H](O)[C@H](O)[C@@H]1O [beta-D-allose]
134 °C	Cc1ccc(S(=O)(=O)OI(O)c2ccccc2)cc1 [hydroxy(tosyloxy)iodobenzene]
70 °C	CC1=C(C#N)c2ccccc2C1 [2-methyl-1H-indene-3-carbonitrile]
-22 °C	Cc1cccc2ccccc12 [1-methylnaphthalene]

melting point	Structure (SMILES)
104 °C	O=[N+]([O-])c1ncccc1Br [3-bromo-2-nitropyridine]
17 °C	O=C(S)c1ccccc1 [thiobenzoic acid]
142 °C	CCOC(=O)c1cc2c(oc1=O)-c1ccc(OC)cc1CC2
67 °C	COC(=O)[C@H](CCC(=O)O)NC(=O)OCc1ccccc1 [N-benzyloxycarbonyl-l-glutamic acid 1-methyl ester]
137 °C	OB(O)c1ccnc(Cl)c1Cl [2,3-dichloropyridine-4-boronic acid]
134 °C	O=C[C@@H](O)[C@@H](O)[C@@H](O)[C@H](O)CO [alpha-D-talose]
234 °C	C[C@]12C=CC(=O)C=C1CC[C@@H]1[C@@H]2C(=O)C[C@@]2(C)[C@H]1CC[C@]2(O)C(=O)CO [Prednisone]
95 °C	O=C(C(=O)c1ccccc1)c1ccccc1 [Benzil]
32 °C	CCCCCCCCCCS(=O)(=O)Cl [1-decanesulfonyl chloride]
2 °C	Cc1ccc(C(C)C)cc1O [5-Isopropyl-2-methylphenol]
144 °C	O=C(O)CCCCCCC(=O)O [suberic_acid]
133 °C	O=C(O)C=Cc1ccco1 [b-2-Furylacrylic Acid]
105 °C	O=Cc1ccc([N+](=O)[O-])cc1 [4-nitrobenzaldehyde]
123 °C	OB(O)c1ccc(OC(F)(F)F)cc1 [4-(trifluoromethoxy)benzeneboronic acid]
-79 °C	C#CCCCCCC [1-octyne]
316 °C	Cc1c[nH]c(=O)[nH]c1=O [thymine]
52 °C	O=C(O)CCCc1ccccc1 [4-phenylbutyric acid]
110 °C	Cc1cccc(C(=O)O)c1 [m-toluic_acid]
69 °C	O[C@@H]1OC[C@@H](OCc2ccccc2)[C@@H](OCc2ccccc2)[C@@H]1OCc1ccccc1 [2,3,4-tri-o-benzyl-beta-D-arabinopyranose]
65 °C	Nc1c(Cl)cc(C(F)(F)F)cc1[N+](=O)[O-] [2-chloro-6-nitro-4-(trifluoromethyl)aniline]
137 °C	Cn1nc(CC#N)c2c(N)ncnc21
100 °C	O=C(O)C(Sc1ccccc1)c1ccccc1 (stereo not drawn) [alpha-(phenylthio)phenylacetic acid]
260 °C	CC(=O)Nc1nnc(S(N)(=O)=O)s1 [Acetazolamide]
160 °C	CC(C)[C@@H](C)/C=C/[C@@H](C)[C@H]1CC[C@H]2C3=CC=C4C[C@@H](O)CC[C@]4(C)[C@H]3CC[C@]12C [(3beta,22E)-Ergosta-5,7,22-trien-3-ol]
13 °C	C/C(C)=CC=C(/C)C [2,5-dimethyl-2,4-hexadiene]

melting point	Structure (SMILES)
127 °C	Nc1cc(C(F)(F)F)ccc1N1CCOCC1 [2-(4-morpholinyl)-5-(trifluoromethyl)aniline]
119 °C	O=C(c1ccccc1)N(O)c1ccccc1 [N-Hydroxy-N-phenylbenzamide]
176 °C	CCOC(=O)/C(C(N)=S)=C1/NN=C(c2ccc(Cl)cc2)O1
122 °C	Cc1cc(Cl)cc([N+](=O)[O-])c1N [4-chloro-2-methyl-6-nitroaniline]
50 °C	CC(=O)c1ccc(Oc2ccccc2)cc1 [4'-phenoxyacetophenone]
143 °C	Nc1cc([N+](=O)[O-])ccc1O [2-amino-4-nitrophenol]
135 °C	CCOc1ccc(NC(C)=O)cc1 [Phenacetin]
126 °C	Cc1ccc(C(=O)CCC(=O)O)cc1 [3-(4-methylbenzoyl)propionic acid]
141 °C	CC12CCC(C(=O)/C(=C\c3ccccc3[N+](=O)[O-])C1=O)C2(C)C (configuration not stated)
348 °C	Cn1cnc2c1c(=O)[nH]c(=O)n2C [theobromine]
9 °C	CCCCCCCCCCCCCCc1ccccc1 [Tetradecylbenzene]
153 °C	CN(C)c1ccc(/C=C2\C(=O)C3CCC(C)(C2=O)C3(C)C)cc1 (configuration not stated)
42 °C	FC(F)(F)c1cc(-n2cccc2)cc(C(F)(F)F)c1 [1-[3,5-bis(trifluoromethyl)phenyl]pyrrole]
206 °C	NS(=O)(=O)c1cc(C(=O)O)c(NCc2ccco2)cc1Cl [Furosemide]
-53 °C	COC(OC)OC [trimethyl orthoformate]
111 °C	CC(=O)Nc1ccccc1C [2'-methylacetanilide]
160 °C	O=C1c2ccccc2C(=O)c2c(Cl)cccc21 [1-chloroanthraquinone]
-27 °C	C1=CC=CC=CC=C1 [1,3,5,7-cyclooctatetraene]
-92 °C	CCCOC(C)=O [N-propyl acetate]
-63 °C	ClC(Cl)Cl [trichloromethane]
201 °C	C[C@H](CCC(=O)O)[C@H]1CC[C@H]2[C@@H]3[C@H](O)C[C@@H]4C[C@H](O)CC[C@]4(C)[C@H]3C[C@H](O)[C@]12C [cholic acid]
25 °C	c1ccc(Cc2ccccc2)cc1 [diphenylmethane]
27 °C	N#CCc1cccc(Br)c1 [3-bromophenylacetonitrile]
270 °C	O=C1[C@H]2C[C@@H]3C[C@@H](C[C@H]1C3)C2 [Adamantanone]
112 °C and 113 °C	O=[N+]([O-])c1ccc(O)cc1 [4-nitrophenol]

Structure (SMILES)	melting point
CCC1(C2=CCCCCC2)C(=O)NC(=O)NC1=O [heptabarbital]	174 °C
CC(=O)OC1CCC2(C)C3CCC4(C)C(=O)CCC4C3C(=O)CC2(C)C1 (configuration not stated) [5-methyl-7,17-dioxoandrostan-3-yl acetate]	155 °C
CCCCCCP(=O)(O)O [N-hexylphosphonic acid]	109 °C
CP(C)(C)=S [trimethylphosphine sulfide]	156 °C
O=[N+]([O-])c1cccc(CCl)c1 [3-nitrobenzyl_chloride]	47 °C
CCOC(=O)c1ccccc1C(=O)OCC [diethyl_phthalate]	-3 °C
Nc1ccc(Cl)cc1N [4-Chlorobenzene-1,2-diamine]	68.5 °C
O=C=N/c1cc(ccc1C)N=C=O [2,4-Diisocyanato-1-methylbenzene]	20.5 °C
C=C[C@H]1C[N@@]2CC[C@H]1C[C@@H]2[C@@H](O)c1ccnc2ccccc12 [cinchonine]	258 °C
Clc1c(Cl)c(Cl)c(Cl)c(Cl)c1Cl [Hexachlorobenzene]	230 °C
Oc1ccc(Cl)c(Cl)c1 [3,4-dichlorophenol]	68 °C and 66 °C
COc1cc2c(c(OC)c1OC)-c1ccc(OC)c(=O)cc1[C@@H](NC(C)=O)CC2	142 °C
COP(=S)(OC)Oc1ccc([N+](=O)[O-])cc1 [O,O-Dimethyl O-(4-nitrophenyl) phosphorothioate]	36 °C
Nc1ccccc1[N+](=O)[O-] [2-Nitroaniline]	72 °C
C=C(C)[C@H]1Cc2c(ccc3c2O[C@@H]2COc4cc(OC)c(OC)cc4[C@@H]2C3=O)O1	166 °C
Cc1ccc(N)cc1N [2,4-diaminotoluene]	99 °C
Oc1ccc(Cl)cc1Cl [2,4-dichlorophenol]	43 °C and 45 °C and 42.5 °C
Brc1cc(Br)cc(Br)c1 [1,3,5-tribromobenzene]	124 °C (2×) and 122 °C
CCCC(C)Br (configuration not stated) [2-bromopentane]	-96 °C
C=CCO [Prop-2-en-1-ol]	-129 °C
COc1ccc(OC)c(C=O)c1 [2,5-dimethoxybenzaldehyde]	52 °C
CCC1(c2ccccc2)CCC(=O)NC1=O (configuration not stated) [glutethimide]	87.5 °C
